Molecular target: T1, Human P2Y12 (Homo sapiens, UniProt Q9H244)
T1 construct: expressed in transfected cells; host or cells: HEK cells (membrane preparation)
Assay: [^33P]-2MeS-ADP Binding to Recombinant Human P2Y12 Membranes (Assay 3)
Conditions: for inhibition at 10 µM: highest concentration tested 10 μM; for IC50 / Ki: membranes of HEK cells transfected with P2Y12, competition with ^33P 2MeS-ADP, multiple lines = multiple runs
Method: 3. Human P2Y12 Recombinant Cell Membrane Binding Assay with ^33P 2MeS-ADP.
The ability of a test compound to bind to the P2Y12 receptor was evaluated in a recombinant cell membrane binding assay. In this competitive binding assay, the test compound competed against a radiolabelled agonist for binding to the P2Y12 receptor, expressed on the cell membrane. Inhibition of binding of the labeled material was measured and correlated to the amount and potency of the test compound. Data from this assay are presented in Table F. This binding assay is a modification of the procedure in Takasaki, J. et. al, Mol. Pharmacol., 2001, Vol. 60, pg. 432.
HEK cells were transfected with the pDONR201P2Y12 vector and cultured in MEM with GlutaMAX I, Earle's salts, 25 mM HEPES (Gibco #42360-032) containing 10% dialyzed FBS (Gibco #26400-044), 100 μM nonessential amino acids (Gibco #11140-050), 1 mM sodium pyruvate (Gibco #11360-070), 0.05% geneticin (Gibco #10131-027), 3 μg/mL blasticidin (Fluka brand from Sigma #15205), and 0.5 μg/mL puromycin (Sigma #P-8833).
Confluent cells were washed once with cold DPBS (Gibco #14190-136). Fresh DPBS was added and the cells were scraped and centrifuged at 500×g for 5 minutes at 4° C. The cell pellets were resuspended in TEE buffer (25 mM Tris, 5 mM EDTA, 5 mM EGTA) containing 1 protease inhibitor cocktail tablet (Roche #1 873 580) per 50 mL (called TEE+Complete) and can be flash frozen at this point.
In one embodiment, frozen cell pellets were used to prepare the membranes. In that embodiment, the frozen cell pellets were thawed on ice. In another embodiment, cell pellets may be used without flash freezing before moving on to the next step.
Cell pellets were resuspended in TEE buffer+Complete and homogenized in a glass dounce for 12 strokes. The cell suspension was centrifuged at 500×g for 5 minutes at 4° C. The supernatant was saved and centrifuged at 20,000×g for 20 minutes at 4° C. This supernatant was discarded and the cell pellet resuspended in TEE buffer+Complete and homogenized in a glass dounce for 12 strokes. This suspension was centrifuged at 20,000×g for 20 minutes at 4° C. and the supernatant discarded. The pellet was resuspended in assay buffer (50 mM Tris, 100 mM NaCl, 1 mM EDTA) containing one protease inhibitor cocktail tablet per 50 mL, and can be flash frozen as 1 mL aliquots at this point.
[…] A 1 mM DMSO intermediate stock was made in a dilution plate and from this the seven dilutions were made to 5× the final concentration in assay buffer containing 0.02% BSA.
To a polypropylene assay plate (Costar #3365) the following were added: a) 30 μL of assay buffer containing one protease inhibitor cocktail tablet per 50 mL; b) 30 μL of 1 nM ^33P 2MeS-ADP made in assay buffer containing 0.02% BSA and 12.5 mg/mL ascorbic acid; 30 μL of cold 1.5 μM 2MeS-ADP for the positive control wells, or assay buffer containing 0.02% BSA and 12.5 mg/mL ascorbic acid for the negative control wells, or 5× drug dilution; and 60 μL of 1 ug/well membranes.
The plates were incubated at room temperature for 1 hour. The reaction was stopped using a cell harvester to transfer the reaction mixture onto GF/B UniFilter plates (Perkin Elmer #6005177), and washed three times with wash buffer (50 mM Tris), filtering between each wash. The filter plates were dried for approximately 20 minutes in an oven at 50° C. Back seals were adhered to the filter plates and 25 uL of Microscint 20 scintillation fluid (Perkin Elmer #6013621) were added. The filter plates were sealed, shaken for 30 minutes, and counted on a Top Count. Data were analyzed using a four-parameter curve fit with a fixed minimum and maximum experimentally defined as the average positive and negative controls on each plate, and with a hill slope equal to one. […]

T1 sequence (Q9H244 whole entry): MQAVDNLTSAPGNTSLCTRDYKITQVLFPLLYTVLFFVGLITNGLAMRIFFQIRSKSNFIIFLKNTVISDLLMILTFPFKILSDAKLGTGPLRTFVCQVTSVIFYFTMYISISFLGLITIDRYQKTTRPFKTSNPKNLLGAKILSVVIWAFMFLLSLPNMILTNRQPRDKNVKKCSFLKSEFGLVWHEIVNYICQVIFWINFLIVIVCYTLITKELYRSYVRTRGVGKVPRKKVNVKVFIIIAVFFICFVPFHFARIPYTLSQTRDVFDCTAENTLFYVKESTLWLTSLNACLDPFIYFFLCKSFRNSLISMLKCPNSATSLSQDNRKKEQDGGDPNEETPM

Compound	inhibition at 10 µM [%]	IC50 [µM]	Ki [µM]
CCOC(=O)CNC(=O)Nc1nc(N2CCN(C(=O)c3ccc(-c4ccccc4)cc3)CC2)c2cc(CC)sc2n1 [Example 15, Ethyl N-[({4-[4-(1,1′-biphenyl-4-ylcarbonyl)piperazin-1-yl]-6-ethylthieno[2,3-d]pyrimidin-2-yl}amino)carbonyl]glycinate]	94.5	0.066	0.038
C=C(C)C(=O)OCCNC(=O)Nc1nc(N2CCN(C(=O)c3ccc(-c4ccccc4)cc3)CC2)c2cc(CC)sc2n1 [Example 16, 2-{[({4-[4-(1,1′-Biphenyl-4-ylcarbonyl)piperazin-1-yl]-6-ethylthieno[2,3-d]pyrimidin-2-yl}amino)carbonyl]amino}ethyl 2-methylacrylate]	80.8	0.244	0.14
CCOC(=O)CCNC(=O)Nc1nc(N2CCN(C(=O)c3ccc(-c4ccccc4)cc3)CC2)c2cc(CC)sc2n1 [Example 17, ethyl N-[({4-[4-(1,1′-biphenyl-4-ylcarbonyl)piperazin-1-yl]-6-ethylthieno[2,3-d]pyrimidin-2-yl}amino)carbonyl]-beta-alaninate]	89.9	0.157	0.09
CCc1cc2c(N3CCN(C(=O)c4ccc(-c5ccccc5)cc4)CC3)nc(NC(=O)NCC(=O)O)nc2s1 [Example 18, N-[({4-[4-(1,1′-Biphenyl-4-ylcarbonyl)piperazin-1-yl]-6-ethylthieno[2,3-d]pyrimidin-2-yl}amino)carbonyl]glycine]	95.4	0.0043	0.002
CCc1cc2c(N3CCN(C(=O)c4ccc(-c5ccccc5)cc4)CC3)nc(NC(=O)NCCC(=O)O)nc2s1 [Example 19, N-[({4-[4-(1,1′-Biphenyl-4-ylcarbonyl)piperazin-1-yl]-6-ethylthieno[2,3-d]pyrimidin-2-yl}amino)carbonyl]-beta-alanine]	88	0.006	0.003
CCc1cc2c(N3CCN(C(=O)c4ccc(-c5ccccc5)cc4)CC3)nc(NC(=O)NCCCO)nc2s1 [Example 20, N-{4-[4-(1,1′-Biphenyl-4-ylcarbonyl)piperazin-1-yl]-6-ethylthieno[2,3-d]pyrimidin-2-yl}-N′-(3-hydroxypropyl)urea]	89	0.072	0.047
CCc1cc2c(N3CCN(C(=O)c4ccc(-c5ccccc5)cc4)CC3)nc(NC(=O)COC)nc2s1 [Example 23, N-{4-[4-(Biphenyl-4-carbonyl)piperazin-1-yl]-6-ethylthieno[2,3-d]pyrimidin-2-yl}-2-methoxyacetamide]	93.2	0.0624	0.036
CCc1cc2c(N3CCN(C(=O)c4ccc(-c5ccccc5)cc4)CC3)nc(NC(=O)C(C)C)nc2s1 [Example 24]	90	0.163	0.089
CCc1cc2c(N3CCN(C(=O)c4ccc(-c5ccccc5)cc4)CC3)nc(NC(C)=O)nc2s1 [Example 25, N-{4-[4-(Biphenyl-4-carbonyl)piperazin-1-yl]-6-ethylthieno[2,3-d]pyrimidin-2-yl}acetamide]	91	0.159	0.093
CCc1cc2c(N3CCN(C(=O)c4ccc(-c5ccccc5)cc4)CC3)nc(NC(=O)COCc3ccccc3)nc2s1 [Example 27, 2-Benzyloxy-N-{4-[4-(biphenyl-4-carbonyl)piperazin-1-yl]-6-ethylthieno[2,3-d]pyrimidin-2-yl}acetamide]	84	0.204	0.119
CCc1cc2c(N3CCN(C(=O)c4ccc(-c5ccccc5)cc4)CC3)nc(NC(=O)CCNC(=O)OCc3ccccc3)nc2s1 [Example 28, Benzyl(2-{4-[4-(biphenyl-4-carbonyl)piperazin-1-yl]-6-ethylthieno[2,3-d]pyrimidin-2-ylcarbamoyl}ethyl)carbamate]	92.7	0.0381	0.021

From patent publication US20080200475A1 (Pfizer Inc., priority 2005, published 2008)
